Values of other authors as cited in patent US7994166B2, “Pyrrolidinone benzenesulfonamide derivatives as modulators of ion channels for the treatment of pain” (Vertex Pharmaceuticals Incorporated, priority 2007, dated 2011).

Target: NaV1.8 (Homo sapiens, UniProt Q9Y5Y9)
Details: read-out: TTX IC50

Sequence of NaV1.8 (Q9Y5Y9 whole entry, looked up): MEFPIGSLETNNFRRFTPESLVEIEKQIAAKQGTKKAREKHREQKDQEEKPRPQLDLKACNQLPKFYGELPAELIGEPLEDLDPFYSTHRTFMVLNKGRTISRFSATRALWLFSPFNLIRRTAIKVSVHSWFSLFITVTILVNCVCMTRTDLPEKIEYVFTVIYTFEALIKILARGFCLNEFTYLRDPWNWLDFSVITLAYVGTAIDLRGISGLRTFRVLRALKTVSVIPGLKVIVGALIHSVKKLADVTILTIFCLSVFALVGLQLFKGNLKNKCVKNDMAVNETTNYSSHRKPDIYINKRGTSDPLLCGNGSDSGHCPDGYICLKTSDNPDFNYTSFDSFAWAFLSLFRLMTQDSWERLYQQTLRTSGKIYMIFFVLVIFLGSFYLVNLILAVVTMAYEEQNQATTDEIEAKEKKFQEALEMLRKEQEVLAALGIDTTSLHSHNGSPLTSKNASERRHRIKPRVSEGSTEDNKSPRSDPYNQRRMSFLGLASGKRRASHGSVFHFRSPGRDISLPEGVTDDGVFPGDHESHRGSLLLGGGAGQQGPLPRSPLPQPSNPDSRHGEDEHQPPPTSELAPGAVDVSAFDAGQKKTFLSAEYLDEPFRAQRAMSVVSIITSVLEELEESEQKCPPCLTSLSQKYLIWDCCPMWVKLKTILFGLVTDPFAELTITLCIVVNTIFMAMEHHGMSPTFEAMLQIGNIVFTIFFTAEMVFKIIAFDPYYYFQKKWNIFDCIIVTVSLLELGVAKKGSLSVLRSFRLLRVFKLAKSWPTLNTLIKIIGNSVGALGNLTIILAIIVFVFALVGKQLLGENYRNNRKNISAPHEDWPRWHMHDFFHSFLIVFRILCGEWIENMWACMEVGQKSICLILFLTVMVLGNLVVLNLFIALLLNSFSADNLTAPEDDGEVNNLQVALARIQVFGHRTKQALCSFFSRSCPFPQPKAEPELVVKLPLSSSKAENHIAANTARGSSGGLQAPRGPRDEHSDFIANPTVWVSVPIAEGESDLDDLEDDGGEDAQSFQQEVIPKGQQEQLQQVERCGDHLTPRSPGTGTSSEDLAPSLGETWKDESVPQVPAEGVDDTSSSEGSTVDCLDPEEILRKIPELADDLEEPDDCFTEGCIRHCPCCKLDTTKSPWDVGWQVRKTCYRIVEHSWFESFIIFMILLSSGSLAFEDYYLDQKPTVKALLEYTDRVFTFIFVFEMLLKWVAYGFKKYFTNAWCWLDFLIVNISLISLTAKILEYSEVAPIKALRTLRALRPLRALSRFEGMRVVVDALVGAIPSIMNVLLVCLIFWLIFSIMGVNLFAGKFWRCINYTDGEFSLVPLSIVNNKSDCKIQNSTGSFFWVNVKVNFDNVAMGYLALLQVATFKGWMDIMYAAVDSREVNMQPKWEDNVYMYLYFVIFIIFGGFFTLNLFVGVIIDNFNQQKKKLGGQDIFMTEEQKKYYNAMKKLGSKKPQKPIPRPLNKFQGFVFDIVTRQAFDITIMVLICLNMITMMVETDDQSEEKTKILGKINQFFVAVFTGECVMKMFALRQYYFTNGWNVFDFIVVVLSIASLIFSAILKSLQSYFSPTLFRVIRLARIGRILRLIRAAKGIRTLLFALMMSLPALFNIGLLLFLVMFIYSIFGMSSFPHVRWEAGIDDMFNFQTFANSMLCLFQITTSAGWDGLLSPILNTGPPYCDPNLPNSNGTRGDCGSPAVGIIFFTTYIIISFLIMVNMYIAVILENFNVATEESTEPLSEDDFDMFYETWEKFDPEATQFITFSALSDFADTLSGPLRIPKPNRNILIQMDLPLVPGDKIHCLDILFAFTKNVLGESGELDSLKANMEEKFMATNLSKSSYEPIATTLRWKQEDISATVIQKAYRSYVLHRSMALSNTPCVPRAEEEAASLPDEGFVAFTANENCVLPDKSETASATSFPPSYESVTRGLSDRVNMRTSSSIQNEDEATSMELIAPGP

For NC1=N[C@H](O)[C@H]2[C@H]3O[C@]4(O)O[C@@H]([C@@H](O)[C@@]2(N1)[C@@H]4O)[C@]3(O)CO [TTX, tetrodotoxin], the IC50 is listed as > 50 µM.
